Measured values published in patent US20240122880A1, “COMPOSITIONS FOR TREATING HYPERCHOLESTEROLEMIA AND PREPARATION METHODS THEREOF” (UNIVERSITY OF SAN AGUSTIN, priority 2020, published 2024).

Key:
[1] = system: lipase; assay: Lipase inhibition assay (glycerol generated from cleavage of triglycerides, Sigma MAK046 kit); format: biochemical; conditions: relative to untreated lipase enzyme
Description: The lipase inhibition activities of the pineapple flesh, core, and stem crude extracts were determined by measuring the glycerol generated from the cleavage of triglycerides. The storage and preparation instruction were done according to the stated protocol of MAK, 046, Sigma Aldrich®, St. Louis, MO, USA.
Twenty μL of 750 mg/mL flesh, core, and stem at 100 mg/mL final concentration crude extracts were added to their respective wells.
Two μL of the lipase and Orlistat™ at 100 mg/mL and 10 mg/mL, respectively, were added to wells to serve as negative and positive control. All standards and samples were adjusted to 50 μL by adding Lipase Assay Buffer. A 100-μL reaction mix consisting of 93 μL Lipase Assay Buffer, 2 μL peroxidase substrate, 2 μL enzyme mix and 3 μL of lipase substrate was added to each well.
Absorbance was read at 570 nm every five minutes using CLARIOStar™ microplate reader at 37° C. incubation at slow kinetics mode for two hours. The percent lipase inhibition was calculated relative to the untreated lipase enzyme.

[2] = target: T1, HMG-CoA reductase (Homo sapiens, UniProt P04035); assay: HMG-CoA reductase inhibition assay (NADPH oxidation at 340 nm, Sigma CS1090 kit); format: biochemical; conditions: sample concentration 2.1 μg/mL
T1 construct: by the catalytic subunit of 3-hydroxy-3-methylglutaryl CoA reductase; purchased Sigma Aldrich CS1090
T1 sequence (P04035 340-888 limits assumed): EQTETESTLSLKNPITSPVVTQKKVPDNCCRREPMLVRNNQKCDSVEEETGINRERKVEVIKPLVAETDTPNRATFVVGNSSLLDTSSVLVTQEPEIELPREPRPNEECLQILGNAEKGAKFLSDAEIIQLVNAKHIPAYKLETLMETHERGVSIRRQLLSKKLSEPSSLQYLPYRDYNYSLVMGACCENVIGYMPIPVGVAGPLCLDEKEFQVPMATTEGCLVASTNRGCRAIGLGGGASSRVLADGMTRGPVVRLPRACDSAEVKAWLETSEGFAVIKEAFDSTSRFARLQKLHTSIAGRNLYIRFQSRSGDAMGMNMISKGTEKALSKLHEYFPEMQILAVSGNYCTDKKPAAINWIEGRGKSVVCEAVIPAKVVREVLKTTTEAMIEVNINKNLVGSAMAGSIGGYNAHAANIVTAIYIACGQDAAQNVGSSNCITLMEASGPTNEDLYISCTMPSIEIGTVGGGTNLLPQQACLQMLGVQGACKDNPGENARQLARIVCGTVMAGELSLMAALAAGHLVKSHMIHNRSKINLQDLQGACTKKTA
Description: The assay was based on the spectrophotometric measurement of the decrease in absorbance at 340 nm, which represents the oxidation of Nicotinamide Adenine Dinucleotide Phosphate (NADPH) by the catalytic subunit of 3-hydroxy-3-methylglutaryl CoA reductase in the presence of substrate HMG-CoA. All storage and reagent preparations were performed according to the protocol (CS1090, Sigma Aldrich®, St. Louis, MO, USA).
Assay buffer (1×) in the HMG-CoA assay kit was added to all samples. 184 μL for the blank, 182 μL for the activity control, 181 μL for the inhibition control and samples according to the manufacturer's instructions in the Sigma-Aldrich® CS1090 assay kit.
Pravastatin™ (2.1 μg/mL) positive control, 20 μL of […], core (100 mg/mL final concentration) and 20 μL of 50 mg/mL stem (5 mg/mL final concentration) crude extracts were added to its assay buffers. Lower reaction concentration of extracts (20 μL of 250 mg/mL to obtain 25 mg/mL final concentration of flesh and core crude extracts) was also tested against HMG-CoA reductase enzyme.
Four μL of NADPH and 12 μL HMG-CoA substrate were also added to the treatments. The HMG-CoA reductase enzyme (2 μL) was kept on ice until added to the activity, inhibition controls, and samples.
The absorbance at 340 nm was monitored for every 20 seconds for up to 10 minutes using CLARIOStar™ plate reader. […]

Compound | Lipase inhibition activity ([1]; sample concentration 10 mg/mL) | Lipase inhibition activity ([1]; sample concentration 100 mg/mL) | HMG-COA reductase inhibition activity [2]
CCCCCCCCCCC[C@@H](C[C@@H]1OC(=O)[C@H]1CCCCCC)OC(=O)[C@H](CC(C)C)NC=O [Orlistat ™, Orlistat] | 100±0.05% | 100 ± 0.05% | 
CC[C@H](C)C(=O)O[C@H]1C[C@H](O)C=C2C=C[C@H](C)[C@H](CC[C@@H](O)C[C@@H](O)CC(=O)O)[C@H]21 [Pravstatin ™, Pravastatin] |  |  | 82%
